Kd data for 19 compounds are collected here from ChEMBL document CHEMBL3991601, “The target landscape of clinical kinase drugs” (Science, 2017).

Activity calls are given as the source filed them. A value given as a limit tells only on which side of the number the result lay.

Test [1] concerns the target Mitogen-activated protein kinase 10 (Homo sapiens, UniProt P53779).
The target in test [2] is Macrophage-stimulating protein receptor (Homo sapiens, UniProt Q04912).
In test [3] the target is T1, RNA cytidine acetyltransferase (Homo sapiens, UniProt Q9H0A0).
T1 sequence (Q9H0A0 whole entry): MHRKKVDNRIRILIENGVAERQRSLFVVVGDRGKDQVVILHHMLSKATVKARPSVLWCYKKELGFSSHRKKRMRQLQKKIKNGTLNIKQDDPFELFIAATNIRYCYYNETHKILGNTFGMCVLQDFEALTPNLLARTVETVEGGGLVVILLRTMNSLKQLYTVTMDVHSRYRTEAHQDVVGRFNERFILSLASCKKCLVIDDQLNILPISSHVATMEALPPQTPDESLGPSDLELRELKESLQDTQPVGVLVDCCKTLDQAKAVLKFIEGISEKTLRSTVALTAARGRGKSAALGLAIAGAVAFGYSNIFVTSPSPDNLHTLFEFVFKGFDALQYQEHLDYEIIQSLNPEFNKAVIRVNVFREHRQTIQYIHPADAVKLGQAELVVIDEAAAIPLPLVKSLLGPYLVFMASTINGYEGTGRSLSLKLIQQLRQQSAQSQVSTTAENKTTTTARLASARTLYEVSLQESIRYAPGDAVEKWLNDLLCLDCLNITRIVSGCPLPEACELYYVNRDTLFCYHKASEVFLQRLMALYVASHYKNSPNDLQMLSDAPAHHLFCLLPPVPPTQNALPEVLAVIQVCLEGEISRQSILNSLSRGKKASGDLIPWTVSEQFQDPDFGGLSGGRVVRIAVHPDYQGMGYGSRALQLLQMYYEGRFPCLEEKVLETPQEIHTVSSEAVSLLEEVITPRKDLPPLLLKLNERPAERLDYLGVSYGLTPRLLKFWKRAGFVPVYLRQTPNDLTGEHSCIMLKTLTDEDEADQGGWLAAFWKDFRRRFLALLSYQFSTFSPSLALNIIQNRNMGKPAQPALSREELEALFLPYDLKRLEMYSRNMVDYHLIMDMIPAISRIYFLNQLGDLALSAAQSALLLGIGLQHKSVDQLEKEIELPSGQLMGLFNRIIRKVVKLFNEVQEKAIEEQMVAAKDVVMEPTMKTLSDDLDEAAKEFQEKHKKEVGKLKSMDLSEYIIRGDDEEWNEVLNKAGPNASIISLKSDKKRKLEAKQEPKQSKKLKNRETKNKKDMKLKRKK

Test [4] concerns the target T2, Serine/threonine-protein kinase Nek3 (Homo sapiens, UniProt P51956).
T2 sequence (P51956 whole entry): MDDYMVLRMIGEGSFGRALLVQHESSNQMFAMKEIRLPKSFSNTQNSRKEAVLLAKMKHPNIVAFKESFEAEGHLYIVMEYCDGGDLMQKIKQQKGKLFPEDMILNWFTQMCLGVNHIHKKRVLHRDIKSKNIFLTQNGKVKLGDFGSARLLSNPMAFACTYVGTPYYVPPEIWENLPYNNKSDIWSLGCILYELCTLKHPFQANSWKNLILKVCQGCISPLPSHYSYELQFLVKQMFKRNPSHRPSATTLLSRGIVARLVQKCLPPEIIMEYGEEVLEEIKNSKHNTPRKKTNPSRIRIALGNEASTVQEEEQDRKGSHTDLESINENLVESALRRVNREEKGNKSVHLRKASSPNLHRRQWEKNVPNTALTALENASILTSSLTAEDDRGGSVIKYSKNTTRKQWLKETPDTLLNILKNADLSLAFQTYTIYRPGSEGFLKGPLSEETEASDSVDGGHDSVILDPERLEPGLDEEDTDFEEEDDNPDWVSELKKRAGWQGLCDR

The target of test [5] is T3, Acyl-CoA dehydrogenase family member 11 (Homo sapiens, UniProt Q709F0).
T3 sequence (Q709F0 whole entry): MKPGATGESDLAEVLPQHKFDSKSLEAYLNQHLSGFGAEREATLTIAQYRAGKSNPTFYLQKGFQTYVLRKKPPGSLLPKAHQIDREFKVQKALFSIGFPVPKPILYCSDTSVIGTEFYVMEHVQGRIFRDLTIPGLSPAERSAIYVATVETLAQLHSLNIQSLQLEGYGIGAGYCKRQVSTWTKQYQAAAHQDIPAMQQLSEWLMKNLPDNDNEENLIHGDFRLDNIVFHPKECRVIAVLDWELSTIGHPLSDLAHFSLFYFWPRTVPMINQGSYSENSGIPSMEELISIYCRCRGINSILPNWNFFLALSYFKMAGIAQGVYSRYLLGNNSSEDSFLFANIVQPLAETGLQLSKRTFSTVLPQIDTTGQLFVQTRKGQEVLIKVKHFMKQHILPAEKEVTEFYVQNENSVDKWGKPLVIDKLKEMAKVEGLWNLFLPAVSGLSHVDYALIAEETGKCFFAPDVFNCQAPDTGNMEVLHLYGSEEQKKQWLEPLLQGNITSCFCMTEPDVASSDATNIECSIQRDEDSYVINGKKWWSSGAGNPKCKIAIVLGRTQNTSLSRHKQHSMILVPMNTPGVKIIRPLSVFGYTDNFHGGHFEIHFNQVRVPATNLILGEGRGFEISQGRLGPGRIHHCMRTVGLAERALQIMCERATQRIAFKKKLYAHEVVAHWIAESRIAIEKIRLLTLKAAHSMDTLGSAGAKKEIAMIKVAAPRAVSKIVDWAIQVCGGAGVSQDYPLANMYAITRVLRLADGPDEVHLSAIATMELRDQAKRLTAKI

Test [6] addresses T4, Phosphatidylinositol 5-phosphate 4-kinase type-2 alpha (Homo sapiens, UniProt P48426).
T4 sequence (P48426 whole entry): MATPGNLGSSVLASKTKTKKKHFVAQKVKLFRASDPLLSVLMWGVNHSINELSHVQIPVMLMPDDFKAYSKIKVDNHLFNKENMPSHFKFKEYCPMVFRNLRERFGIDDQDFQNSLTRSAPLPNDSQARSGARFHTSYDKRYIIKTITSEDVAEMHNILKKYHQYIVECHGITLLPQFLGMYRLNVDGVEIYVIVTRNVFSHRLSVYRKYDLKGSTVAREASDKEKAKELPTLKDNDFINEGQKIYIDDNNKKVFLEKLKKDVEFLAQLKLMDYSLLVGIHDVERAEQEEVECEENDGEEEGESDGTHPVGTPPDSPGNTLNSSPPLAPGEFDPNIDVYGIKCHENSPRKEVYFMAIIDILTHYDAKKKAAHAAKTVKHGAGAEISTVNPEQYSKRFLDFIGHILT
Note: in the data inactive means no Kd found up to 30 µM.

Sequence of Macrophage-stimulating protein receptor (Q04912 25-304 limits assumed): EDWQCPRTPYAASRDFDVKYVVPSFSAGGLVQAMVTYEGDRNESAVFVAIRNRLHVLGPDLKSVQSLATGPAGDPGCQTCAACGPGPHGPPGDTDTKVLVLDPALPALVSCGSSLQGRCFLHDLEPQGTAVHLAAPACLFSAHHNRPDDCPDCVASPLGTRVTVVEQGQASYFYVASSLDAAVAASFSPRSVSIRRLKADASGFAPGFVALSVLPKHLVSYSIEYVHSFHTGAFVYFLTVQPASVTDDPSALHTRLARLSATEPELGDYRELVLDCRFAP
Sequence of Macrophage-stimulating protein receptor (Q04912 310-1400 limits assumed): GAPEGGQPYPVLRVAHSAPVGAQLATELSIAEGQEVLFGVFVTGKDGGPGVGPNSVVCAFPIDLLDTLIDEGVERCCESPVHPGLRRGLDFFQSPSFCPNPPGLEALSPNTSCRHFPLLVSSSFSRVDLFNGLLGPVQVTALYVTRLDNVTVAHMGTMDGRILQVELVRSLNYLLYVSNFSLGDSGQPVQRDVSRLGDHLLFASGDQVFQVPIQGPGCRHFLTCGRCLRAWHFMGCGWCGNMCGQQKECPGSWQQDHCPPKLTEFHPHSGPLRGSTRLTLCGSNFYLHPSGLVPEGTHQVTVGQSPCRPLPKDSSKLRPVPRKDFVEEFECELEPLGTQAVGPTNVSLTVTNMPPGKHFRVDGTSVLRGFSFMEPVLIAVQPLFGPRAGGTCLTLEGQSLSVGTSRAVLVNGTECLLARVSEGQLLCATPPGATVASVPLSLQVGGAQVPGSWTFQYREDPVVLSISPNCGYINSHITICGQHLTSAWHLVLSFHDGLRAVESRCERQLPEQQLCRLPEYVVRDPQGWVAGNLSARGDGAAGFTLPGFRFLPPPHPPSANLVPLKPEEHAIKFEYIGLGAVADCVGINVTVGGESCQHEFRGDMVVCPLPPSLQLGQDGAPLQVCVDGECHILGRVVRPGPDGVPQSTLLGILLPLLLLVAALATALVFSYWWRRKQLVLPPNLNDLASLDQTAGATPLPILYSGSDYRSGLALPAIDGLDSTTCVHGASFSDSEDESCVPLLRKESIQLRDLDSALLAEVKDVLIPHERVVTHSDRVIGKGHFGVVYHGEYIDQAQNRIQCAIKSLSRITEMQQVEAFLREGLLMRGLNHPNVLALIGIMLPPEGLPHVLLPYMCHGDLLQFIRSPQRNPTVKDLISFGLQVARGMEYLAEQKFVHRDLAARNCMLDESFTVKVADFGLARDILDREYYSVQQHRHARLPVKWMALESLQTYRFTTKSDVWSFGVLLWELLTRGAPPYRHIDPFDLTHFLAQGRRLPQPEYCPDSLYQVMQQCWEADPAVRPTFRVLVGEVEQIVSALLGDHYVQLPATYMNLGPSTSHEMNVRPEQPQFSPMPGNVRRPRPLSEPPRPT
Sequence of Mitogen-activated protein kinase 10 (P53779 whole entry): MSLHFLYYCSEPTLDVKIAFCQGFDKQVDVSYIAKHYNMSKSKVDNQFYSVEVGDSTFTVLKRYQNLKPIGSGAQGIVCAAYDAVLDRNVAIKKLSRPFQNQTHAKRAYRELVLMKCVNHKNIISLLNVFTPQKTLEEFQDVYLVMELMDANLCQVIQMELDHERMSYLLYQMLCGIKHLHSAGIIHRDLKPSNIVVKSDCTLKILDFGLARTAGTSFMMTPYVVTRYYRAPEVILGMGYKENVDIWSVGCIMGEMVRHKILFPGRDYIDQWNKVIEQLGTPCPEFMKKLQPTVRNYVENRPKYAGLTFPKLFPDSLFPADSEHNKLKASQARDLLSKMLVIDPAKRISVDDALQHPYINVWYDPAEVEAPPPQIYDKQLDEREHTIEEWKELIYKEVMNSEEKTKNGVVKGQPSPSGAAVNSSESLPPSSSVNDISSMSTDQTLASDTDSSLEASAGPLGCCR

With `C[C@@H](Oc1cc(C(=O)Nc2ccc(C(=O)N3CCN(C)CC3)cc2)nnc1N)c1c(Cl)ccc(F)c1Cl`, the Kd in test [1], in test [2], in test [3] and in test [4] was > 30 µM (inactive) in each case.
Take `C[C@H]1CNCCCN1S(=O)(=O)c1cccc2cncc(F)c12`: the Kd in test [5], in test [1], in test [2], in test [3] and in test [4] was > 30 µM (inactive) throughout.
Take `CC(=O)c1cnc2ccc(-c3cc(Cl)c(O)c(Cl)c3)nc2c1N[C@H]1CC[C@H](CN(C)C)CC1`: the dissociation constant (Kd) is 0.112 µM (active) in test [1]; 0.311 µM (active) in test [2]; > 30 µM (inactive) in test [3]; > 30 µM (inactive) in test [4]; > 30 µM (inactive) in test [6].
As to `Nc1ncnc2c1c(-c1cccc(OCc3ccccc3)c1)cn2[C@H]1C[C@@H](CN2CCC2)C1` [AEW-541], the Kd in test [1], in test [2], in test [3] and in test [4] was > 30 µM (inactive) throughout.
Regarding `Cc1nc(NC(=O)N2CCC[C@H]2C(N)=O)sc1-c1ccnc(C(C)(C)C(F)(F)F)c1` [ALPELISIB], the Kd in test [5], in test [1], in test [2], in test [3] and in test [4] was > 30 µM (inactive) in each case.
Turning to `O=C(Nc1c[nH]nc1-c1nc2cc(CN3CCOCC3)ccc2[nH]1)NC1CC1` [AT-9283], the Kd is > 30 µM (inactive) in test [5], 0.358 µM (active) in test [1], > 30 µM (inactive) in test [2] and > 30 µM (inactive) in test [3].
For the compound `C=CC(=O)Nc1cc2c(Nc3ccc(F)c(Cl)c3)ncnc2cc1C#CC(C)(C)N1CCN(C)CC1` [AV-412 FREE BASE], the Kd in test [1], in test [2], in test [3], in test [4] and in test [6] was > 30 µM (inactive) throughout.
As for `CNC(=O)c1ccccc1Sc1ccc2c(/C=C/c3ccccn3)n[nH]c2c1` [AXITINIB], the Kd in test [5], in test [3] and in test [6] was > 30 µM (inactive) each time.
Regarding `COc1cc([C@@H]2c3cc4c(cc3[C@H](O)[C@H]3COC(=O)[C@@H]23)OCO4)cc(OC)c1OC` [AXL-1717], the Kd in test [1], in test [2], in test [3], in test [4] and in test [6] was > 30 µM (inactive) in each case.
Take `Cn1cc(C2=C(c3cn(C4CCN(Cc5ccccn5)CC4)c4ccccc34)C(=O)NC2=O)c2ccccc21` [ENZASTAURIN]: the Kd in test [3] and in test [6] was > 30 µM (inactive) in each case.
For the compound `Cc1nc2cc(-n3ncc(C(=O)c4cc5ccccc5[nH]4)c3N)ccc2[nH]1` [FGFR INHIBITOR DEBIO 1347], the Kd in test [1], in test [2], in test [3] and in test [4] was > 30 µM (inactive) each time.
In the case of `CN(C[C@@H]1COCCO1)S(=O)(=O)Nc1ccc2ccc3ncc(-c4cnn(C)c4)cc3c(=O)c2c1` [MK-2461], the Kd in test [1] is 4.7 µM (active); in test [2] it was 0.278 µM (active); in test [3], > 30 µM (inactive); in test [4] it was > 30 µM (inactive); in test [6], > 30 µM (inactive).
For the compound `FC(F)(F)c1ccc(/C=C/c2nc(COc3ccc(CCCCn4ccnn4)cc3)co2)cc1` [MUBRITINIB], the Kd in test [5], in test [1], in test [2], in test [3] and in test [4] was > 30 µM (inactive) in each case.
Turning to `CCCCCCCCCCCCCCCCCCOP(=O)([O-])OC1CC[N+](C)(C)CC1` [PERIFOSINE], the Kd in test [1], in test [2], in test [3] and in test [4] was > 30 µM (inactive) each time.
For the compound `Cc1cnc(NC(=O)Nc2cc(Br)c(C)cc2OC[C@@H]2CNCCO2)cn1` [RABUSERTIB], the Kd in test [5], in test [1], in test [2], in test [3] and in test [4] was > 30 µM (inactive) throughout.
With `O=C1NC(=O)[C@@H](c2cn3c4c(cccc24)CCC3)[C@@H]1c1c[nH]c2ccccc12` [TIVANTINIB], the Kd in test [5], in test [1], in test [2], in test [3] and in test [4] was > 30 µM (inactive) in each case.
`C[C@@H](NC(=O)c1ncnc(N)c1Cl)c1ncc(C(=O)Nc2cc(C(F)(F)F)c(Cl)cn2)s1` [TOVORAFENIB]: the Kd in test [1], in test [2], in test [3], in test [4] and in test [6] was > 30 µM (inactive) throughout.
As for `Cn1ncc(Cl)c1-c1cc(C(=O)N[C@H](CN)Cc2ccc(F)c(F)c2)oc1Cl` [UPROSERTIB], the Kd in test [1], in test [2], in test [3], in test [4] and in test [6] was > 30 µM (inactive) throughout.
Regarding `CC(C)c1cc(CNc2nc(Nc3cc(C4CC4)[nH]n3)cc(N3CCN(C)CC3)n2)on1` [XL-228], the Kd in test [5] is > 30 µM (inactive); in test [1] it was > 30 µM (inactive); in test [2], 2.37 µM (active); in test [3], > 30 µM (inactive); in test [4], > 30 µM (inactive).
